Assay results taken from ChEMBL document CHEMBL5385886, “Design, synthesis and evaluation of nitric oxide releasing derivatives of 2,4-diaminopyrimidine as novel FAK inhibitors for intervention of metastatic triple-negative breast cancer” (Eur J Med Chem, 2023).
Active and inactive are the calls of the source. The calls are words filed in the database; no cut-off is given here.

How the values were obtained:
MDA-MB-231 [1] = assay: Antiproliferative activity against human MDA-MB-231 cells assessed as inhibition of cell proliferation incubated for 72 hrs in presence of 2-(4-((5-chloro-4-((2-(methylcarbamoyl)phenyl)amino)pyrimidin-2-yl)amino)phenyl)acetic acid by MTT assay; format: functional, cell-based; details: MDA-MB-231, 72 h
MDA-MB-231 [2] = assay: Antiproliferative activity against human MDA-MB-231 cells assessed as inhibition of cell proliferation incubated for 72 hrs by MTT assay; format: functional, cell-based; details: MDA-MB-231, 72 h
MDA-MB-231 [3] = assay: Antiproliferative activity against human MDA-MB-231 cells assessed as inhibition of cell proliferation at 5 to 20 uM incubated for 72 hrs by MTT assay; format: functional, cell-based; details: dose 5-20 µM
MDA-MB-231 [4] = assay: Antiproliferative activity against human MDA-MB-231 cells assessed as inhibition of cell proliferation incubated for 72 hrs in presence of 4-((8-hydroxyoctyl)oxy)-3-(phenylsulfonyl)-1,2,5-oxadiazole 2-oxide by MTT assay; format: functional, cell-based; details: MDA-MB-231, 72 h
MDA-MB-453 = assay: Antiproliferative activity against human MDA-MB-453 cells assessed as inhibition of cell proliferation incubated for 72 hrs by MTT assay; format: functional, cell-based; details: MDA-MB-453, 72 h
MDA-MB-231 [5] = assay: Antiproliferative activity against human MDA-MB-231 cells assessed as inhibition of cell proliferation at 5 uM incubated for 72 hrs by MTT assay relative to control; format: functional
Focal adhesion kinase 1 = Focal adhesion kinase 1 (Homo sapiens, UniProt Q05397); assay: Inhibition of FAK (unknown origin)
Chain of Focal adhesion kinase 1 (Q05397 whole entry): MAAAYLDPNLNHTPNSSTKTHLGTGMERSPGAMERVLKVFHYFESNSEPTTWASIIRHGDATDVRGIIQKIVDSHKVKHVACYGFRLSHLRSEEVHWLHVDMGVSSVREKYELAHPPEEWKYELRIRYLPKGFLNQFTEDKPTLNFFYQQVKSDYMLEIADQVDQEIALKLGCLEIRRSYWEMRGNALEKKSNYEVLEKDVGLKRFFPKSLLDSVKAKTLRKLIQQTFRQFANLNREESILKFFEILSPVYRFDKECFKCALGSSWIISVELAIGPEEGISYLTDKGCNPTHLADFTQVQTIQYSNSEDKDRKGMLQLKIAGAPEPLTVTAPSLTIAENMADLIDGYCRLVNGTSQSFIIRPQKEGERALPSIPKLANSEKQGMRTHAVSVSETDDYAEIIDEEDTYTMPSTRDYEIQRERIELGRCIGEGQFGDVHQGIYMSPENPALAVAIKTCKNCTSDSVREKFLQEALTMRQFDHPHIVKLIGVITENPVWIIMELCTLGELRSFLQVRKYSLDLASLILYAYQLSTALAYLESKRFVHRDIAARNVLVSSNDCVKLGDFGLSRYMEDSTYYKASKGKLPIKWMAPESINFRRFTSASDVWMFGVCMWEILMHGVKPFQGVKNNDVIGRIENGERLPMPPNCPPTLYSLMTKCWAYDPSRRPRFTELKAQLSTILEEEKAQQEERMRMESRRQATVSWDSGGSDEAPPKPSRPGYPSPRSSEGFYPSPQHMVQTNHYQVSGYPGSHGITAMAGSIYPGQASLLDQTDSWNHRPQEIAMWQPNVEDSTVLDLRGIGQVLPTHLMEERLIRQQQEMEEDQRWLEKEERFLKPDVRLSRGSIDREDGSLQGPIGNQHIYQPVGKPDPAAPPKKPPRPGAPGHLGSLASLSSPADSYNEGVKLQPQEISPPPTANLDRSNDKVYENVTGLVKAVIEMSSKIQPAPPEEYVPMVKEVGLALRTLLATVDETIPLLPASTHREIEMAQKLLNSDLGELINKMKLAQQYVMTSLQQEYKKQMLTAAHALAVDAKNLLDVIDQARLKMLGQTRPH

MDA-MB-231 [6] = assay: Induction of NO production in human MDA-MB-231 cells at 4 uM incubated for 72 hrs by DAF-FM-DA dye based flow cytometry analysis; format: functional, cell-based
MDA-MB-157 = assay: Antiproliferative activity against human MDA-MB-157 cells assessed as inhibition of cell proliferation incubated for 72 hrs by MTT assay; format: functional, cell-based; details: MDA-MB-157, 72 h

## O=S(=O)(c1ccccc1)c1c(OCCCCCCCCO)no[n+]1[O-]
MDA-MB-231 [1]
  IC50: 1220 nM
MDA-MB-231 [2]
  IC50: 1500 nM

## CC1(C)N(O)C(c2ccc(C(=O)O)cc2)=[N+]([O-])C1(C)C
MDA-MB-231 [3]
  Activity: inactive

## CNC(=O)c1ccccc1Nc1nc(Nc2ccc(CC(=O)O)cc2)ncc1Cl
MDA-MB-231 [4]
  IC50: 1220 nM
MDA-MB-231 [2]
  IC50: 1950 nM

## CNC(=O)c1ccccc1Nc1nc(Nc2ccc(CC(=O)OCCCCCOc3no[n+]([O-])c3S(=O)(=O)c3ccccc3)cc2)ncc1Cl
MDA-MB-453
  IC50: 221 nM
MDA-MB-231 [5]
  inhibition at 5 µM: > 92%
Focal adhesion kinase 1
  IC50: 107 nM
MDA-MB-231 [6]
  Activity: Active
MDA-MB-157
  IC50: 235 nM
MDA-MB-231 [2]
  IC50: 130 nM
